Drawing on BindingDB's records for doi:10.1021/jm500629e (Mcgill University, 2014), this text covers IC50 for ten compounds.

SMILES strings stand for the structures.

The test addresses T1, Farnesyl pyrophosphate synthase (Homo sapiens, UniProt P14324).
T1 sequence (P14324 whole entry): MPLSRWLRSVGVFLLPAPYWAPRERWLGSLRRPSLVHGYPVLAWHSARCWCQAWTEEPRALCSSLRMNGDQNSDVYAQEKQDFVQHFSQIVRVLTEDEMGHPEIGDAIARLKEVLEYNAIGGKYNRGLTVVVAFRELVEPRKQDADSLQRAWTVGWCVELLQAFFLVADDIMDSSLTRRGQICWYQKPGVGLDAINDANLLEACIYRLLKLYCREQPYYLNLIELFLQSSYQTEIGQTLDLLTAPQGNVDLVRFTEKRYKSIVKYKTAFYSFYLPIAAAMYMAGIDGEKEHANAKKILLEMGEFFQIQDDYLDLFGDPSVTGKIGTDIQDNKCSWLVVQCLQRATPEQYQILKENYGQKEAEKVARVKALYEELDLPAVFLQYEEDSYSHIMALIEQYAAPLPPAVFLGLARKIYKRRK
Nature of the test: Inhibition of FPPS (unknown origin).
By IC50 is commonly meant the midpoint of a concentration-inhibition curve. Read a low IC50 as greater potency in that assay. Regarding `Cc1ccc(-c2cc3c(NCP(=O)(O)O)ncnc3s2)cc1`, the IC50 was determined as 4500 nM.

`Cc1ccc(-c2cc3c(NCCP(=O)(O)O)ncnc3s2)cc1` registered an IC50 of 200 nM. This IC50 lies about 22-fold lower than the previous one.

As to `Cc1ccc(-c2cc3c(CCP(=O)(O)O)ncnc3s2)cc1`, half-maximal inhibition (IC50) required 200 nM.

`Cc1ccc(-c2cc3c(NCC(=O)O)ncnc3s2)cc1` had an IC50 of over 20000 nM.

In the case of `Cc1ccc(-c2cc3c(NCP(=O)(O)O)ncnc3s2)cc1Cl`, half-maximal inhibition (IC50) required 3300 nM. That is a single-digit micromolar value.

Turning to `Cc1ccc(-c2cc3c(NC(c4ccccc4)P(=O)(O)O)ncnc3s2)cc1Cl` (stereo not given), half-maximal inhibition (IC50) required 1200 nM.

Take `O=P(O)(O)CCc1cccnc1`: it took 200 nM to reach half-maximal inhibition (IC50).

The compound `Cc1ccc(-c2cc3c(NC(P(=O)(O)O)P(=O)(O)O)ncnc3s2)cc1` had an IC50 of 200 nM.

`O=P(O)(O)C(Nc1ncnc2sc(-c3ccc(OC4CC4)cc3)cc12)P(=O)(O)O` had a half-maximal inhibitory concentration (IC50) of 200 nM. This counts as sub-micromolar.

As to `O=P(O)(O)C(Cc1cccnc1)P(=O)(O)O` [(1-phosphono-2-pyridin-3-yl-ethyl)-phosphonic acid], it took 200 nM to reach half-maximal inhibition (IC50).
